Laboratory results as given in ChEMBL document CHEMBL3286250, “Oxirapentyns F-K from the marine-sediment-derived fungus Isaria felina KMM 4639” (J Nat Prod, 2014).
Calls of active or inactive are those of the source. No cut-off for these calls is given here.

What was measured:
Candida albicans = assay: Antimicrobial activity against Candida albicans KMM 455 by agar diffusion method; format: functional, organism-based
Pseudomonas aeruginosa = assay: Antimicrobial activity against Pseudomonas aeruginosa KMM 433 by agar diffusion method; format: functional, organism-based
Staphylococcus aureus = assay: Antimicrobial activity against Staphylococcus aureus ATCC 21027 by agar diffusion method; format: functional, organism-based
Bacillus subtilis = assay: Antimicrobial activity against Bacillus subtilis KMM 430 by agar diffusion method; format: functional, organism-based
Escherichia coli = assay: Antimicrobial activity against Escherichia coli ATCC 15034 by agar diffusion method; format: functional, organism-based
HL-60 = assay: Cytotoxicity against human HL60 cells after 46 hrs by MTS assay; format: functional, cell-based; conditions: HL-60, 46 h
THP-1 = assay: Cytotoxicity against human THP1 cells after 46 hrs by MTS assay; format: functional, cell-based; conditions: THP-1, 46 h
[1] = Cytotoxicity against CD1 mouse erythrocytes up to 100 uM after 46 hrs by MTS assay; format: cell-based; conditions: erythrocyte
[2] = Cytotoxicity against CD1 mouse splenocytes up to 100 uM after 46 hrs by MTS assay; format: cell-based; conditions: splenocyte

Structure (SMILES)	Activity (Candida albicans)	Activity (Pseudomonas aeruginosa)	Activity (Staphylococcus aureus)	Activity (Bacillus subtilis)	Activity (Escherichia coli)	IC50 (HL-60) [µM]	IC50 (THP-1) [µM]	Activity [1]	Activity [2]
C=C(C)C#C[C@]1(O)[C@@H](O)[C@@H]2OC(C)(C)[C@H](OC(C)=O)C[C@@]23O[C@H]3[C@@H]1O	inactive	inactive	inactive	inactive	inactive				
CC(=O)O[C@@H]1C[C@]23O[C@H]2C2=C(C(=O)CC(C)(C)O2)[C@@H](O)[C@@H]3OC1(C)C	inactive	inactive	inactive	inactive	inactive				
C=C(C)C#C[C@]12O[C@H]1[C@@H]1OC(C)(C)[C@H](OC(C)=O)C[C@@]1(O)[C@@H](O)[C@@H]2O	inactive	inactive	inactive	inactive	inactive				
COC(=O)/C=C/C(O)=C1\COCC(OC(C)=O)=C1C(=O)OC	inactive	inactive	inactive	inactive	inactive	4.3	37.4	Non-toxic	Non-toxic
C=C(C)C#C[C@@]1(O)[C@@H](O)[C@H](O)[C@]2(OC(C)=O)C[C@@H](O)C(C)(C)O[C@H]2[C@@H]1O	inactive	inactive	inactive	inactive	inactive				
